Source: US9340590B2 (priority 2011, dated 2016)
Positions of bridges follow the written chain, without caps; N, C: chain ends. Residues, ends and D or L forms follow the SMILES beside them.

What was measured:
Assay in all cases: cell-based
hNav1.5 = hNav1.5 (Homo sapiens, UniProt Q14524); settings: IonWorks Quattro; clamped to −110 mV, depolarized to −10 mV, 5 min after compound; n=2; read-out: IWQ Use Nav1.5
hNav1.3 = hNav1.3 (Homo sapiens, UniProt Q9NY46); settings: IonWorks Quattro; clamped to −110 mV, depolarized to −10 mV, 5 min after compound; n=2; read-out: IWQ Use Nav1.3
hNav1.7 = hNav1.7 (Homo sapiens, UniProt Q15858); format: cell-based; settings: IonWorks Quattro; clamped to −110 mV, depolarized to −10 mV, 5 min after compound; n=2; read-out: IWQ Use Nav1.7
Chain of hNav1.7 (Q15858 whole entry, looked up): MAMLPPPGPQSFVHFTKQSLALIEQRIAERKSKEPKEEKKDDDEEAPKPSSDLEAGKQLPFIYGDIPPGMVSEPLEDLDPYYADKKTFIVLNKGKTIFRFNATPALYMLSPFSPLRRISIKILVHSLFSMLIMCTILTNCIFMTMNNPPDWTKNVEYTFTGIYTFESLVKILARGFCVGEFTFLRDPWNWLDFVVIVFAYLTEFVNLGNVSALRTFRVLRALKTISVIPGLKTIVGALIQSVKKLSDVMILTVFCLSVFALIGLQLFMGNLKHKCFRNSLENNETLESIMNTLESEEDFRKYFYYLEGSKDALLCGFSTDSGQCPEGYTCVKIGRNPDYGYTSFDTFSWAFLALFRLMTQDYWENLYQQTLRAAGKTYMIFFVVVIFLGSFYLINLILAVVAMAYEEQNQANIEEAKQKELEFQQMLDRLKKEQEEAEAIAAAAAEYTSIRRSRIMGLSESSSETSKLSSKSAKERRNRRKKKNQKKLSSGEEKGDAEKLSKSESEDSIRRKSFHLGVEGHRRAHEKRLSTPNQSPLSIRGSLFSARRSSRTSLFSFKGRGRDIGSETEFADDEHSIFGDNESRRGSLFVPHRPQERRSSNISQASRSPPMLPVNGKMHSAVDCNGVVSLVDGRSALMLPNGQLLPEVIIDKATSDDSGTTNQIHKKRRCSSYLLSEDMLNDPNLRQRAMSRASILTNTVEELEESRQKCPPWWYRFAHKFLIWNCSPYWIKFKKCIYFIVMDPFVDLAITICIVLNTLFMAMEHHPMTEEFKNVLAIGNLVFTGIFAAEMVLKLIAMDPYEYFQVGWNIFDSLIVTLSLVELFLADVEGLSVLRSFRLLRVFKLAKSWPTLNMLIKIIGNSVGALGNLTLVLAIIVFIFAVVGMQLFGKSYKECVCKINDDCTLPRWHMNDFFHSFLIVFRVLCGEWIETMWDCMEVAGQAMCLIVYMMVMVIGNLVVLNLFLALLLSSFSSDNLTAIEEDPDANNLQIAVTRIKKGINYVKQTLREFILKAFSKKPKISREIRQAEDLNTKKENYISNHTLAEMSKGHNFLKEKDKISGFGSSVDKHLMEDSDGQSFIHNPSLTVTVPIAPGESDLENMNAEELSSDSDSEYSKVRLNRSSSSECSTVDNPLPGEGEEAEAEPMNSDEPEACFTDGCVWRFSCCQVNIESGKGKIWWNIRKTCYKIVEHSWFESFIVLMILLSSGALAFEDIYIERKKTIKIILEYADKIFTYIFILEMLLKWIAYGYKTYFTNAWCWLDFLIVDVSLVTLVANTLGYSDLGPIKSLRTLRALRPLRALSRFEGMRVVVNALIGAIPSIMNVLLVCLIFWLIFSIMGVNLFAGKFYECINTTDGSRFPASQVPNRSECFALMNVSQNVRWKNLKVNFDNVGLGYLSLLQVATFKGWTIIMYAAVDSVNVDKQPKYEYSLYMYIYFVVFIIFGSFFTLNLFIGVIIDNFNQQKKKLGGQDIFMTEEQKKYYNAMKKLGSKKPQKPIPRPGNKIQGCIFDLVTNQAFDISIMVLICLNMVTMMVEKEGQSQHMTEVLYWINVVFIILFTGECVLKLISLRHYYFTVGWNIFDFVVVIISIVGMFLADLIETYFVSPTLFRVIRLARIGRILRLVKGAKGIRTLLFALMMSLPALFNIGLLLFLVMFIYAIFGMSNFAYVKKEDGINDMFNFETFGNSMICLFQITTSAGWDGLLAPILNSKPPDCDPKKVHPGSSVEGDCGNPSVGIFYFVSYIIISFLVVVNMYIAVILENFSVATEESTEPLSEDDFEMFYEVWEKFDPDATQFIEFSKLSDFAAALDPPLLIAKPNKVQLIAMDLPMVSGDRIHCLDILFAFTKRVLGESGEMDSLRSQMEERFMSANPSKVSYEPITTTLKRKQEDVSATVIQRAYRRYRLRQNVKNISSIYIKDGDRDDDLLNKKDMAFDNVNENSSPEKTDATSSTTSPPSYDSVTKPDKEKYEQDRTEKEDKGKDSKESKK

Chain of hNav1.5 (Q14524 whole entry, looked up): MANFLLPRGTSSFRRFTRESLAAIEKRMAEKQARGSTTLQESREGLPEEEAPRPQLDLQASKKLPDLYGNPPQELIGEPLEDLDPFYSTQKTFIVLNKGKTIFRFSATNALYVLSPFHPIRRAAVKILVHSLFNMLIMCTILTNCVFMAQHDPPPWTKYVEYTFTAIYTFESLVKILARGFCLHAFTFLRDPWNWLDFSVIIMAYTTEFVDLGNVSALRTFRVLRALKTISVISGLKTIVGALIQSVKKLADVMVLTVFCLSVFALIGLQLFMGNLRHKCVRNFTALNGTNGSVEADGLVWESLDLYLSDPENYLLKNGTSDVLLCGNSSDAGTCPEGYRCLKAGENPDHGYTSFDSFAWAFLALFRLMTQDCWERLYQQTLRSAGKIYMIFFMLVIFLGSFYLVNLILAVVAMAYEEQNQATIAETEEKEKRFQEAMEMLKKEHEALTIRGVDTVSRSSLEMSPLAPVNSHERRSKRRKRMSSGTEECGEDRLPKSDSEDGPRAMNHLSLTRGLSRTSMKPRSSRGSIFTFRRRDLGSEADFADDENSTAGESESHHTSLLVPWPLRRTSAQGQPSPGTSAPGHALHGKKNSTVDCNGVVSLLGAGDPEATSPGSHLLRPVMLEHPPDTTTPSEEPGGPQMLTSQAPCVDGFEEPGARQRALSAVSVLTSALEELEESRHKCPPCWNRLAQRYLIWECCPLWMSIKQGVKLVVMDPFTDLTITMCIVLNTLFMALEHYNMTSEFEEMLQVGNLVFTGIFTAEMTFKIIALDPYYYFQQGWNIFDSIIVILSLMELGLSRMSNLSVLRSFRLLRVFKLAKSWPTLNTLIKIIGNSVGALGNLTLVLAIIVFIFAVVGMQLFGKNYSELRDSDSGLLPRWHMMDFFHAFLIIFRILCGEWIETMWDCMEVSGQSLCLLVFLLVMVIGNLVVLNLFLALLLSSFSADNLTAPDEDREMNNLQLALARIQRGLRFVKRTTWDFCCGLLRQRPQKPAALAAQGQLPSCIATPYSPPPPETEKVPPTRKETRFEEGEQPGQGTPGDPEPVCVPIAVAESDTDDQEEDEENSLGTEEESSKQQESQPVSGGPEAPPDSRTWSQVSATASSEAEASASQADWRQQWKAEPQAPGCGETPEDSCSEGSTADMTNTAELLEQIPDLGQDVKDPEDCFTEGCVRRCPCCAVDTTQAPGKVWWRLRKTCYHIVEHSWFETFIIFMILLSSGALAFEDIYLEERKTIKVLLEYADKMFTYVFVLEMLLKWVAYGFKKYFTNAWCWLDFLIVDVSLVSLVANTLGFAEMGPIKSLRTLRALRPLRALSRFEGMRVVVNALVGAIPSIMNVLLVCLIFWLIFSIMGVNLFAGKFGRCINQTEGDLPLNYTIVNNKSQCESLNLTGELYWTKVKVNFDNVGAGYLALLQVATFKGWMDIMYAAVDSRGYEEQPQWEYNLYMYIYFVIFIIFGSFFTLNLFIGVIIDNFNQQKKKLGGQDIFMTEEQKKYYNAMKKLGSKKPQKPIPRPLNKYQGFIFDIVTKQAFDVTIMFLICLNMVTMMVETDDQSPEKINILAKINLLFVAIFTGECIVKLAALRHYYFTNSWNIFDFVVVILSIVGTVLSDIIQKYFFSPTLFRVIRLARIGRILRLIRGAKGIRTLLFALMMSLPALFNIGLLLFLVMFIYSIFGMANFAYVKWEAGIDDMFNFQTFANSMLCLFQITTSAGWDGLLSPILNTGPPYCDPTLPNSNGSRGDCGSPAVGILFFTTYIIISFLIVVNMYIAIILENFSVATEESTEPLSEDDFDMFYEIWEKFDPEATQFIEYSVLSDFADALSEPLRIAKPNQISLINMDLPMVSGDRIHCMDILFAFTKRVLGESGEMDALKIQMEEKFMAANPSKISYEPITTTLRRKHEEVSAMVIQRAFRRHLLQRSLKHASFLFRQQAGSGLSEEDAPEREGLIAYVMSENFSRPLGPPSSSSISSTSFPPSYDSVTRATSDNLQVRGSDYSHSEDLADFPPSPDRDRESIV

| Compound | IC50 (hNav1.5) [nM] | IC50 (hNav1.3) [nM] | IC50 (hNav1.7) [nM] |
| --- | --- | --- | --- |
| CC[C@H](C)[C@@H]1NC(=O)[C@@H]2CSSC[C@@H]3NC(=O)[C@H](C(C)C)NC(=O)[C@H](CC(C)C)NC(=O)[C@H](CC(N)=O)NC(=O)[C@@H]4CCCN4C(=O)[C@H](CCCNC(=N)N)NC(=O)[C@H](CSSC[C@H](NC(=O)[C@@H](N)CC(=O)O)C(=O)N[C@@H](CC(C)C)C(=O)NCC(=O)N[C@@H](CCSC)C(=O)N[C@@H](CCSC)C(=O)N[C@@H](CCCNC(=N)N)C(=O)N[C@@H](CCCCN)C(=O)N2)NC(=O)[C@H](CSSC[C@@H](C(=O)N[C@@H](CCCCN)C(=O)N[C@@H](Cc2ccc(O)cc2)C(=O)N[C@H](C(=O)N[C@@H](Cc2ccccc2)C(N)=O)C(C)C)NC(=O)[C@H](Cc2c[nH]c4ccccc24)NC(=O)[C@H](CCCCN)NC(=O)[C@H](Cc2cnc[nH]2)NC(=O)[C@H]([C@@H](C)O)NC(=O)[C@H](CCCNC(=N)N)NC(=O)[C@H](CO)NC3=O)NC(=O)[C@H](CCCCN)NC(=O)[C@H](CC(=O)O)NC(=O)[C@H](CC(N)=O)NC(=O)[C@H](CC(=O)O)NC(=O)[C@@H]2CCCN2C1=O [SEQ ID NO: 268] (H-DCLGMMRKCIPDNDKCCRPNLVCSRTHKWCKYVF-NH2; disulfide 2-17, 9-23, 16-30) | 12800 | 240 | 100 |
| CC[C@H](C)[C@@H]1NC(=O)[C@@H]2CSSC[C@@H]3NC(=O)[C@H](C(C)C)NC(=O)[C@H](CC(C)C)NC(=O)[C@H](CC(N)=O)NC(=O)[C@@H]4CCCN4C(=O)[C@H](CCCNC(=N)N)NC(=O)[C@H](CSSC[C@H](NC(=O)[C@@H](N)CC(=O)O)C(=O)N[C@@H](CC(C)C)C(=O)NCC(=O)N4CCC[C@H]4C(=O)N[C@@H](CCSC)C(=O)N[C@@H](CCCNC(=N)N)C(=O)N[C@@H](CCCCN)C(=O)N2)NC(=O)[C@H](CSSC[C@@H](C(=O)N[C@@H](CCCCN)C(=O)N[C@@H](Cc2ccc(O)cc2)C(=O)N[C@H](C(=O)N[C@@H](Cc2ccccc2)C(N)=O)C(C)C)NC(=O)[C@H](Cc2c[nH]c4ccccc24)NC(=O)[C@H](CCCCN)NC(=O)[C@H](Cc2c[nH]cn2)NC(=O)[C@H]([C@@H](C)O)NC(=O)[C@H](CCCNC(=N)N)NC(=O)[C@H](CO)NC3=O)NC(=O)[C@H](CCCCN)NC(=O)[C@H](CC(=O)O)NC(=O)[C@H](CC(N)=O)NC(=O)[C@H](CC(=O)O)NC(=O)[C@@H]2CCCN2C1=O [SEQ ID NO: 269] (H-DCLGPMRKCIPDNDKCCRPNLVCSRTHKWCKYVF-NH2; disulfide 2-17, 9-23, 16-30) | 6610 | 1730 | 1170 |
| CC[C@H](C)[C@@H]1NC(=O)[C@@H]2CSSC[C@@H]3NC(=O)[C@H](C(C)C)NC(=O)[C@H](CC(C)C)NC(=O)[C@H](CC(N)=O)NC(=O)[C@@H]4CCCN4C(=O)[C@H](CCCNC(=N)N)NC(=O)[C@H](CSSC[C@H](NC(=O)[C@@H](N)CC(=O)O)C(=O)N[C@@H](CC(C)C)C(=O)NCC(=O)N[C@@H]([C@@H](C)O)C(=O)N[C@@H](CCSC)C(=O)N[C@@H](CCCNC(=N)N)C(=O)N[C@@H](CCCCN)C(=O)N2)NC(=O)[C@H](CSSC[C@@H](C(=O)N[C@@H](CCCCN)C(=O)N[C@@H](Cc2ccc(O)cc2)C(=O)N[C@H](C(=O)N[C@@H](Cc2ccccc2)C(N)=O)C(C)C)NC(=O)[C@H](Cc2c[nH]c4ccccc24)NC(=O)[C@H](CCCCN)NC(=O)[C@H](Cc2c[nH]cn2)NC(=O)[C@H]([C@@H](C)O)NC(=O)[C@H](CCCNC(=N)N)NC(=O)[C@H](CO)NC3=O)NC(=O)[C@H](CCCCN)NC(=O)[C@H](CC(=O)O)NC(=O)[C@H](CC(N)=O)NC(=O)[C@H](CC(=O)O)NC(=O)[C@@H]2CCCN2C1=O [SEQ ID NO: 270] (H-DCLGTMRKCIPDNDKCCRPNLVCSRTHKWCKYVF-NH2; disulfide 2-17, 9-23, 16-30) | 15200 | 2190 | 1220 |
| CC[C@H](C)[C@@H]1NC(=O)[C@@H]2CSSC[C@@H]3NC(=O)[C@H](C(C)C)NC(=O)[C@H](CC(C)C)NC(=O)[C@H](CC(N)=O)NC(=O)[C@@H]4CCCN4C(=O)[C@H](CCCNC(=N)N)NC(=O)[C@H](CSSC[C@H](NC(=O)[C@@H](N)CC(=O)O)C(=O)N[C@@H](CC(C)C)C(=O)NCC(=O)N[C@@H](Cc4ccc(O)cc4)C(=O)N[C@@H](CCSC)C(=O)N[C@@H](CCCNC(=N)N)C(=O)N[C@@H](CCCCN)C(=O)N2)NC(=O)[C@H](CSSC[C@@H](C(=O)N[C@@H](CCCCN)C(=O)N[C@@H](Cc2ccc(O)cc2)C(=O)N[C@H](C(=O)N[C@@H](Cc2ccccc2)C(N)=O)C(C)C)NC(=O)[C@H](Cc2c[nH]c4ccccc24)NC(=O)[C@H](CCCCN)NC(=O)[C@H](Cc2c[nH]cn2)NC(=O)[C@H]([C@@H](C)O)NC(=O)[C@H](CCCNC(=N)N)NC(=O)[C@H](CO)NC3=O)NC(=O)[C@H](CCCCN)NC(=O)[C@H](CC(=O)O)NC(=O)[C@H](CC(N)=O)NC(=O)[C@H](CC(=O)O)NC(=O)[C@@H]2CCCN2C1=O [SEQ ID NO: 271] (H-DCLGYMRKCIPDNDKCCRPNLVCSRTHKWCKYVF-NH2; disulfide 2-17, 9-23, 16-30) | 15600 | 1640 | 1430 |
| CC[C@H](C)[C@@H]1NC(=O)[C@@H]2CSSC[C@@H]3NC(=O)[C@H](C(C)C)NC(=O)[C@H](CC(C)C)NC(=O)[C@H](CC(N)=O)NC(=O)[C@@H]4CCCN4C(=O)[C@H](CCCNC(=N)N)NC(=O)[C@H](CSSC[C@H](NC(=O)[C@@H](N)CC(=O)O)C(=O)N[C@@H](CC(C)C)C(=O)NCC(=O)N(C)[C@@H](Cc4c[nH]c5ccccc45)C(=O)N[C@@H](CCSC)C(=O)N[C@@H](CCCNC(=N)N)C(=O)N[C@@H](CCCCN)C(=O)N2)NC(=O)[C@H](CSSC[C@@H](C(=O)N[C@@H](CCCCN)C(=O)N[C@@H](Cc2ccc(O)cc2)C(=O)N[C@H](C(=O)N[C@@H](Cc2ccccc2)C(N)=O)C(C)C)NC(=O)[C@H](Cc2c[nH]c4ccccc24)NC(=O)[C@H](CCCCN)NC(=O)[C@H](Cc2c[nH]cn2)NC(=O)[C@H]([C@@H](C)O)NC(=O)[C@H](CCCNC(=N)N)NC(=O)[C@H](CO)NC3=O)NC(=O)[C@H](CCCCN)NC(=O)[C@H](CC(=O)O)NC(=O)[C@H](CC(N)=O)NC(=O)[C@H](CC(=O)O)NC(=O)[C@@H]2CCCN2C1=O [SEQ ID NO: 274] | > 5000 | 150 | 190 |
| CC[C@H](C)[C@@H]1NC(=O)[C@@H]2CSSC[C@@H]3NC(=O)[C@H](C(C)C)NC(=O)[C@H](CC(C)C)NC(=O)[C@H](CC(N)=O)NC(=O)[C@@H]4CCCN4C(=O)[C@H](CCCNC(=N)N)NC(=O)[C@H](CSSC[C@H](NC(=O)[C@@H](N)CC(=O)O)C(=O)N[C@@H](CC(C)C)C(=O)NCC(=O)N[C@@H](c4ccccc4)C(=O)N[C@@H](CCSC)C(=O)N[C@@H](CCCNC(=N)N)C(=O)N[C@@H](CCCCN)C(=O)N2)NC(=O)[C@H](CSSC[C@@H](C(=O)N[C@@H](CCCCN)C(=O)N[C@@H](Cc2ccc(O)cc2)C(=O)N[C@H](C(=O)N[C@@H](Cc2ccccc2)C(N)=O)C(C)C)NC(=O)[C@H](Cc2c[nH]c4ccccc24)NC(=O)[C@H](CCCCN)NC(=O)[C@H](Cc2c[nH]cn2)NC(=O)[C@H]([C@@H](C)O)NC(=O)[C@H](CCCNC(=N)N)NC(=O)[C@H](CO)NC3=O)NC(=O)[C@H](CCCCN)NC(=O)[C@H](CC(=O)O)NC(=O)[C@H](CC(N)=O)NC(=O)[C@H](CC(=O)O)NC(=O)[C@@H]2CCCN2C1=O [SEQ ID NO: 275] | > 5000 | 170 | 90 |
| CC[C@H](C)[C@@H]1NC(=O)[C@@H]2CSSC[C@@H]3NC(=O)[C@H](C(C)C)NC(=O)[C@H](CC(C)C)NC(=O)[C@H](CC(N)=O)NC(=O)[C@@H]4CCCN4C(=O)[C@H](CCCNC(=N)N)NC(=O)[C@H](CSSC[C@H](NC(=O)[C@@H](N)CC(=O)O)C(=O)N[C@@H](CC(C)C)C(=O)NCC(=O)N[C@@H](Cc4ccc(C(=O)O)cc4)C(=O)N[C@@H](CCSC)C(=O)N[C@@H](CCCNC(=N)N)C(=O)N[C@@H](CCCCN)C(=O)N2)NC(=O)[C@H](CSSC[C@@H](C(=O)N[C@@H](CCCCN)C(=O)N[C@@H](Cc2ccc(O)cc2)C(=O)N[C@H](C(=O)N[C@@H](Cc2ccccc2)C(N)=O)C(C)C)NC(=O)[C@H](Cc2c[nH]c4ccccc24)NC(=O)[C@H](CCCCN)NC(=O)[C@H](Cc2c[nH]cn2)NC(=O)[C@H]([C@@H](C)O)NC(=O)[C@H](CCCNC(=N)N)NC(=O)[C@H](CO)NC3=O)NC(=O)[C@H](CCCCN)NC(=O)[C@H](CC(=O)O)NC(=O)[C@H](CC(N)=O)NC(=O)[C@H](CC(=O)O)NC(=O)[C@@H]2CCCN2C1=O [SEQ ID NO: 276] | 8120 | 5420 | 16000 |
| CC[C@H](C)[C@@H]1NC(=O)[C@@H]2CSSC[C@@H]3NC(=O)[C@H](C(C)C)NC(=O)[C@H](CC(C)C)NC(=O)[C@H](CC(N)=O)NC(=O)[C@@H]4CCCN4C(=O)[C@H](CCCNC(=N)N)NC(=O)[C@H](CSSC[C@H](NC(=O)[C@@H](N)CC(=O)O)C(=O)N[C@@H](CC(C)C)C(=O)NCC(=O)N[C@@H](Cc4ccccn4)C(=O)N[C@@H](CCSC)C(=O)N[C@@H](CCCNC(=N)N)C(=O)N[C@@H](CCCCN)C(=O)N2)NC(=O)[C@H](CSSC[C@@H](C(=O)N[C@@H](CCCCN)C(=O)N[C@@H](Cc2ccc(O)cc2)C(=O)N[C@H](C(=O)N[C@@H](Cc2ccccc2)C(N)=O)C(C)C)NC(=O)[C@H](Cc2c[nH]c4ccccc24)NC(=O)[C@H](CCCCN)NC(=O)[C@H](Cc2c[nH]cn2)NC(=O)[C@H]([C@@H](C)O)NC(=O)[C@H](CCCNC(=N)N)NC(=O)[C@H](CO)NC3=O)NC(=O)[C@H](CCCCN)NC(=O)[C@H](CC(=O)O)NC(=O)[C@H](CC(N)=O)NC(=O)[C@H](CC(=O)O)NC(=O)[C@@H]2CCCN2C1=O [SEQ ID NO: 277] | 9250 | 4580 | 2070 |
